Test systems include 786-0 renal; A549 NSCLC; COLO 205 colon; KM12 colon; LOX IMVI melanoma; NCI-H23 lung; NCI/ADR-RES ovarian; SF-268 CNS; U251 CNS; RXF 393 renal.
Holding throughout (test): NCI tumour cell line growth inhibition, 48 h

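Each compound was tested at five concentrations against cells in 96-well plates for 48 hours. Here, GI50 denotes the concentration required for 50% inhibition of growth. TGI marks complete inhibition of growth.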 Where a SMILES comes first, the peptide text is derived from it. The star is where a group is joined. OSu = O=C1CCC(=O)N1O*

Our source for the TGI and GI50 values is PubChem BioAssay (NCI).

Take `Cc1cn(C2OC(CO[Si](C)(C)C(C)(C)C)C(N(C)O[Si](C)(C)C(C)(C)C)C2[Se]c2ccccc2)c(=O)[nH]c1=O` (stereo unspecified): the TGI with 786-0 renal was 9.29 µM; with A549 NSCLC it was 49.5 µM; in the assay on COLO 205 colon, over 100 µM; with KM12 colon it was 16.2 µM; in the assay on LOX IMVI melanoma, 10.2 µM; in the assay on NCI-H23 lung, 24.6 µM. For the same compound, the TGI with NCI/ADR-RES ovarian came out at 58 µM; in the assay with SF-268 CNS, 10.2 µM; with U251 CNS, 24.5 µM.

Regarding `N#Cc1cccc(-n2[nH]c(=O)ccc2=O)c1`, the TGI with 786-0 renal, with A549 NSCLC, with COLO 205 colon, with KM12 colon, in the assay with NCI-H23 lung and in the assay with SF-268 CNS was over 100 µM in each case. The compound also had a TGI in the assay on U251 CNS of over 100 µM.

As to `NCCCCC(NC(=O)C(N)Cc1ccc(O)cc1)C(=O)NC(CCCCN)C(=O)NC(CCCCN)C(=O)ON1C(=O)CCC1=O` (stereo unspecified) (H-YKKK-OSu; configuration not given here), the TGI in the assay with 786-0 renal, in the assay on A549 NSCLC, with COLO 205 colon, in the assay with KM12 colon, in the assay with NCI-H23 lung and with RXF 393 renal was over 100 µM throughout. In addition, the TGI in the assay on U251 CNS was over 100 µM.

Regarding `CCNC(=O)c1ccc(C)c(N=NN(C)C)c1`, the TGI in the assay with 786-0 renal, in the assay with A549 NSCLC, in the assay on KM12 colon, with LOX IMVI melanoma, in the assay on NCI-H23 lung and in the assay on SF-268 CNS was over 100 µM each time. For the same compound, the TGI with U251 CNS is over 100 µM.

With `O=c1[nH]c2cc(Cl)ccc2nc1/C(=N\Nc1ccccc1)C(O)c1ccc(Cl)c(Cl)c1` (stereo unspecified), the TGI in the assay with 786-0 renal, in the assay on A549 NSCLC, in the assay with COLO 205 colon, in the assay with KM12 colon, in the assay on LOX IMVI melanoma and in the assay on NCI-H23 lung was over 100 µM in each case. For the same compound, the TGI in the assay with RXF 393 renal, with SF-268 CNS and with U251 CNS was over 100 µM in each case.

Regarding `CON(C)C(=O)C(Cc1ccccc1)NC(=O)OCc1ccccc1` (stereo unspecified), the TGI with A549 NSCLC, with COLO 205 colon, in the assay with KM12 colon, in the assay with NCI-H23 lung, in the assay on RXF 393 renal and in the assay on SF-268 CNS was over 100 µM each time. The TGI with U251 CNS is over 100 µM.

With `CCOC(=O)c1cc(-c2ccc(OC)cc2)c([N+](=O)[O-])n1C`, the TGI is over 10 µM in the assay with 786-0 renal; over 10 µM in the assay on A549 NSCLC; over 10 µM with KM12 colon; over 10 µM in the assay on NCI-H23 lung; over 10 µM in the assay with NCI/ADR-RES ovarian; 4.81 µM in the assay with RXF 393 renal. Besides, the TGI in the assay on SF-268 CNS and with U251 CNS was over 10 µM throughout.

Take `COc1cc2c(cc1O)[C@H](C)C(c1ccc(OC)c(OC)c1)O2` (stereo partly specified): the TGI was 23.8 µM with 786-0 renal; over 100 µM with A549 NSCLC; 49.2 µM in the assay on COLO 205 colon; over 100 µM with KM12 colon; 16 µM with LOX IMVI melanoma; 28.1 µM in the assay with NCI-H23 lung. Besides, the TGI in the assay with RXF 393 renal was 30.3 µM; in the assay with SF-268 CNS it was over 100 µM; with U251 CNS, 37.8 µM.

Take `Cc1ccc(Nc2nc(NNC(=O)Cc3ccccc3)nc(NNC(=O)c3ccncc3)n2)cc1`: the TGI with 786-0 renal, in the assay with A549 NSCLC, in the assay with COLO 205 colon, in the assay on KM12 colon, in the assay with LOX IMVI melanoma and in the assay on NCI-H23 lung was over 10 µM each time. For the same compound, the TGI in the assay on NCI/ADR-RES ovarian, in the assay with SF-268 CNS and with U251 CNS was over 10 µM throughout.

Consider `COc1ccc(C2Oc3cc(OC)c(OC)cc3C2CCl)cc1OC` (stereo unspecified), for which the TGI in the assay with 786-0 renal, with A549 NSCLC, with COLO 205 colon, with KM12 colon, in the assay on LOX IMVI melanoma and in the assay on SF-268 CNS was over 100 µM in each case. Also, the TGI in the assay on U251 CNS is over 100 µM.

For the compound `COc1cc(-c2cccs2)sc1-c1cccs1`, the TGI was over 100 µM in the assay on 786-0 renal; over 100 µM in the assay with A549 NSCLC; 27.3 µM with COLO 205 colon; over 100 µM in the assay on KM12 colon; over 100 µM in the assay with LOX IMVI melanoma; over 100 µM in the assay with NCI-H23 lung. Moreover, the TGI is 54.1 µM in the assay with RXF 393 renal, over 100 µM in the assay on SF-268 CNS and over 100 µM in the assay with U251 CNS.

Turning to `Cc1nn(C(=O)Cc2ccccc2)c2c1C(c1ccccc1)SC(N)=N2` (stereo unspecified), the TGI in the assay with 786-0 renal, in the assay on A549 NSCLC, with COLO 205 colon, in the assay on KM12 colon, in the assay on LOX IMVI melanoma and with NCI-H23 lung was over 100 µM each time. In the assay with SF-268 CNS, this compound returned a TGI of over 100 µM.

As to `COC(=O)c1ccc(Cc2cc(Cc3ccc(C(=O)OC)cc3)cc(Cc3ccc(C(=O)OC)cc3)c2)cc1`, the TGI in the assay on 786-0 renal, in the assay with A549 NSCLC, with KM12 colon, with LOX IMVI melanoma, in the assay on NCI/ADR-RES ovarian and in the assay on SF-268 CNS was over 25 µM in each case. The TGI with U251 CNS was over 25 µM.

Regarding `O=C(CC1Sc2ccccc2NC1=O)Nc1ccccc1[N+](=O)[O-]` (stereo unspecified), the TGI in the assay with A549 NSCLC, with COLO 205 colon, in the assay with KM12 colon, with LOX IMVI melanoma, in the assay on NCI-H23 lung and in the assay with RXF 393 renal was over 100 µM in each case. The TGI in the assay with SF-268 CNS and in the assay with U251 CNS was over 100 µM each time.

On to `N#Cc1nc(-c2cnccn2)oc1N`, for which the TGI in the assay with 786-0 renal, in the assay with A549 NSCLC, with KM12 colon, with LOX IMVI melanoma, with RXF 393 renal and in the assay with SF-268 CNS was over 100 µM each time. The compound further returned a TGI with U251 CNS of over 100 µM.

As to `COc1ccc(NC(=S)c2ccc(CN3CCCCC3)s2)cc1`, the TGI in the assay on 786-0 renal is 36.7 µM; with A549 NSCLC, 47.4 µM; with COLO 205 colon, 30.8 µM; with KM12 colon it was 35.7 µM; in the assay on LOX IMVI melanoma, 33.3 µM; in the assay with NCI-H23 lung, 29.5 µM. Also, the TGI is 93.8 µM in the assay on NCI/ADR-RES ovarian, over 100 µM with SF-268 CNS and 34.8 µM in the assay on U251 CNS.

For `O=c1cc(-c2ccc3c(c2)OCO3)[nH]c2cc3c(cc12)OCO3`, the TGI in the assay on 786-0 renal, in the assay on A549 NSCLC, in the assay on COLO 205 colon, in the assay with KM12 colon, with LOX IMVI melanoma and in the assay on NCI-H23 lung was over 100 µM in each case. Moreover, the values for the TGI with RXF 393 renal, with SF-268 CNS and with U251 CNS were 66.5 µM, over 100 µM and 99 µM, respectively. Moreover, the results for the GI50 with RXF 393 renal and in the assay with SF-268 CNS were 20.8 µM and 46.8 µM, respectively.

Take `O=C(Nc1c(O)[nH]c(=S)[nH]c1=O)c1ccccc1`: the TGI in the assay on 786-0 renal, in the assay on A549 NSCLC, with COLO 205 colon, in the assay with KM12 colon, in the assay on LOX IMVI melanoma and with NCI-H23 lung was over 100 µM throughout. Further, the TGI in the assay on SF-268 CNS and with U251 CNS was over 100 µM throughout.

As to `Cc1ccc(S[C@@H](C)[C@@](O)(CF)CN(Cc2ccccc2)C(=O)C(F)(F)F)cc1`, the TGI in the assay on 786-0 renal was 35.4 µM; in the assay with A549 NSCLC, 32.1 µM; with LOX IMVI melanoma, over 100 µM; in the assay with NCI-H23 lung, 56.7 µM; in the assay on NCI/ADR-RES ovarian, 69.5 µM; in the assay on SF-268 CNS, over 100 µM. In the assay with U251 CNS, the TGI stood at 35.3 µM.

Consider `CCOC(=O)C12OC(OCC)(CC1(OCC)OCC)C1(CC1)C2=O` (stereo unspecified), for which the TGI with 786-0 renal, in the assay on A549 NSCLC, in the assay on COLO 205 colon, in the assay with KM12 colon, in the assay with LOX IMVI melanoma and in the assay with NCI-H23 lung was over 100 µM in each case. In addition, the TGI in the assay with NCI/ADR-RES ovarian, in the assay with SF-268 CNS and in the assay on U251 CNS was over 100 µM throughout.

Take `COc1cc(C2C(Cl)C(=O)N2n2cnc3ccccc3c2=O)ccc1O` (stereo unspecified): the TGI in the assay on 786-0 renal, with A549 NSCLC, in the assay on COLO 205 colon, in the assay on KM12 colon, in the assay with LOX IMVI melanoma and with NCI-H23 lung was over 100 µM each time. The TGI in the assay on RXF 393 renal, with SF-268 CNS and in the assay on U251 CNS was over 100 µM in each case.

As for `COc1cc(/C=C2\CN(S(=O)(=O)c3ccc(C)cc3)C/C(=C\c3cc(CN4CCCC4)c(O)c(OC)c3)C2=O)cc(CN2CCCC2)c1O`, the GI50 is 0.568 µM with COLO 205 colon; 1.23 µM with KM12 colon; 0.649 µM with LOX IMVI melanoma; 12 µM with NCI/ADR-RES ovarian; 0.82 µM in the assay on U251 CNS. For the same compound, the TGI with COLO 205 colon was 2.03 µM; in the assay on KM12 colon, 2.56 µM; in the assay on LOX IMVI melanoma, 2.02 µM; with NCI/ADR-RES ovarian, over 100 µM; with U251 CNS it was 2.34 µM.

In the case of `CO[C@](C(=O)OC[C@H]1[C@@H](COC(C)=O)[C@@H]2O[C@H]1c1cc3c(cc12)OCO3)(c1ccccc1)C(F)(F)F`, the TGI in the assay with A549 NSCLC is 94.3 µM; with COLO 205 colon, 93.2 µM; in the assay with KM12 colon, over 100 µM; in the assay on NCI-H23 lung it was over 100 µM; with SF-268 CNS it was 77.1 µM; with U251 CNS it was over 100 µM.
